Each block holds one compound with its values, some of them ahead of it. Active and inactive are the calls of the source.
Key:
[1] = molecular target: Protein disulfide-isomerase (Homo sapiens, UniProt P07237); assay: inhibition of PDI-driven insulin aggregation – biochemical, turbidity, absorbance, cherry-picked samples, dose response (AID 602350); type: functional
[2] = molecular target: Cyclin-dependent kinase 8 (Homo sapiens, UniProt P49336); assay: Navigating the Kinome. Panel member name: CDK8; type: functional
[3] = molecular target: Calcium/calmodulin-dependent protein kinase type II subunit alpha (Homo sapiens, UniProt Q9UQM7); assay: Navigating the Kinome. Panel member name: CAMK2A; type: functional
[4] = molecular target: Mitogen-activated protein kinase 8 (Homo sapiens, UniProt P45983); type: functional;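 further: value comes from one member of a kinome-wide kinase profiling panel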
[5] = molecular target: Mitogen-activated protein kinase kinase kinase kinase 4 (Homo sapiens, UniProt O95819); type: functional
[6] = molecular target: Serine/threonine-protein kinase PAK 4 (Homo sapiens, UniProt O96013); type: functional;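 further: value obtained within a kinome profiling panel in which PAK4 was one of the panel members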
[7] = molecular target: Fibroblast growth factor receptor 1 (Homo sapiens, UniProt P11362); type: functional
[8] = molecular target: Tyrosine-protein kinase ABL1 (Homo sapiens, UniProt P00519); type: functional
[9] = molecular target: Tyrosine-protein kinase BTK (Homo sapiens, UniProt Q06187); type: functional
Sequence of Tyrosine-protein kinase BTK (Q06187 whole entry): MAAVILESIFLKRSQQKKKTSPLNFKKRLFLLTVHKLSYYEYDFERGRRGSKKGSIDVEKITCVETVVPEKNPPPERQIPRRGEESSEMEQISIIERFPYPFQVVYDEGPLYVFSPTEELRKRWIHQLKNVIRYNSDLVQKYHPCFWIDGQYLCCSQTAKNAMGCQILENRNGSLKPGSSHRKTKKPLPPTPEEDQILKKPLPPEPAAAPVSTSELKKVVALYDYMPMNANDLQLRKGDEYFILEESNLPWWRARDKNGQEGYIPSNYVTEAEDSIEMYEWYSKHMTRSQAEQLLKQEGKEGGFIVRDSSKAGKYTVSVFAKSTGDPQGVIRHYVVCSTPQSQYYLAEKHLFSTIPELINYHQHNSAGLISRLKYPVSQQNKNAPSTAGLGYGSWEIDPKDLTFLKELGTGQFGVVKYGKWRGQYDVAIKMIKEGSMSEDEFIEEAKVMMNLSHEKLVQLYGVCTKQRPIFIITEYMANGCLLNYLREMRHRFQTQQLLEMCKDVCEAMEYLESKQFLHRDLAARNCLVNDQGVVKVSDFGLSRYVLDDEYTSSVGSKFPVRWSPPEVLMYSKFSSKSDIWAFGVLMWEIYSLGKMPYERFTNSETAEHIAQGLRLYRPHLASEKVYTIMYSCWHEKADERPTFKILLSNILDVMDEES

[10] = molecular target: Death-associated protein kinase 3 (Homo sapiens, UniProt O43293); type: functional;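 further: measured as one member of a kinome-wide profiling panel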
[11] = molecular target: Serine/threonine-protein kinase D3 (Homo sapiens, UniProt O94806); type: functional;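 further: determined within a kinase panel screen, with PRKCN as the panel member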
Sequence of Serine/threonine-protein kinase D3 (O94806 whole entry, canonical isoform): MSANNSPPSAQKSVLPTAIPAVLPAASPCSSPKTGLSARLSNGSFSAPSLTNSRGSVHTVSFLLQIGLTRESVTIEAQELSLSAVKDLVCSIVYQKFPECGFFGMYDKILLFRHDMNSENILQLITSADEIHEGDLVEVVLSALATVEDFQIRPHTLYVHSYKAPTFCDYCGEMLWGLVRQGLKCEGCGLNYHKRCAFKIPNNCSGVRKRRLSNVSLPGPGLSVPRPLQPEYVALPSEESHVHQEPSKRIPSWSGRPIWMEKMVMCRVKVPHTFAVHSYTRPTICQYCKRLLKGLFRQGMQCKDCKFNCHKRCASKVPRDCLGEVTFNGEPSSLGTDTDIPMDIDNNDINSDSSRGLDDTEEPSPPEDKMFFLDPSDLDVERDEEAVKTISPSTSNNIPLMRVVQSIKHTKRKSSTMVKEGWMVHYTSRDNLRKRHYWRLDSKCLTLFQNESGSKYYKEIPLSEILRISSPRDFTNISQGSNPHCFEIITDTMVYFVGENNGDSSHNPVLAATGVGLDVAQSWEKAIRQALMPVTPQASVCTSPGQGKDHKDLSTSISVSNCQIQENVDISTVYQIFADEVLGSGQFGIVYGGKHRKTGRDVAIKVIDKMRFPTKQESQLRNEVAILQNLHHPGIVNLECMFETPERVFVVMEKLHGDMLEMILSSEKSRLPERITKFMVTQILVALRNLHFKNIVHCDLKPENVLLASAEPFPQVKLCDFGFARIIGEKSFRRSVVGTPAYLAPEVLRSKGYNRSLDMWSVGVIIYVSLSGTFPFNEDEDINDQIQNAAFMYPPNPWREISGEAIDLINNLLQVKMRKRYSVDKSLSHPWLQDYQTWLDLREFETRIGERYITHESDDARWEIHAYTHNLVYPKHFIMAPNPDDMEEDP

[12] = molecular target: Casein kinase I isoform alpha (Homo sapiens, UniProt P48729); type: functional
Sequence of Casein kinase I isoform alpha (P48729 whole entry, canonical isoform): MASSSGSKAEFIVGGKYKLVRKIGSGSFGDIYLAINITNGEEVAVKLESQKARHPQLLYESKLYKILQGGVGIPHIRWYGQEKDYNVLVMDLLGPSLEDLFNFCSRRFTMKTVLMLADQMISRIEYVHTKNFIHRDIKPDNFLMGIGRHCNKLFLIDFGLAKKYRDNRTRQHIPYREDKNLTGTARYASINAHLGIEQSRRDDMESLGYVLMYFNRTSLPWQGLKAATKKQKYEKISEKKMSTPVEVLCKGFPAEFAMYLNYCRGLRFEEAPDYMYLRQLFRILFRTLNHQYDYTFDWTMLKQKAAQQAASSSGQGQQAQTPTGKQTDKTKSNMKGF

[13] = molecular target: G protein-coupled receptor kinase 5 (Homo sapiens, UniProt P34947); assay: Navigating the Kinome. Panel member name: GPRK5; type: functional
[14] = molecular target: Tyrosine-protein kinase Lck (Homo sapiens, UniProt P06239); type: functional;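 further: lck was assayed as one member of a kinase panel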
[15] = molecular target: Serine/threonine-protein kinase N2 (Homo sapiens, UniProt Q16513); type: functional
[16] = molecular target: Glycogen synthase kinase-3 alpha (Homo sapiens, UniProt P49840); type: functional;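 further: GSK3A result taken from a broad kinome-wide kinase panel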
[17] = molecular target: Tyrosine-protein kinase JAK3 (Homo sapiens, UniProt P52333); type: functional
[18] = molecular target: ALK tyrosine kinase receptor (Homo sapiens, UniProt Q9UM73); type: functional;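 further: ALK tested as one member of a kinase panel screen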
Focal adhesion kinase 1 = Focal adhesion kinase 1 (Homo sapiens, UniProt Q05397); type: functional;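 further: measured as one member of a kinome panel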
[19] = molecular target: Serine/threonine-protein kinase TAO1 (Homo sapiens, UniProt Q7L7X3); type: functional
Sequence of Serine/threonine-protein kinase TAO1 (Q7L7X3 whole entry): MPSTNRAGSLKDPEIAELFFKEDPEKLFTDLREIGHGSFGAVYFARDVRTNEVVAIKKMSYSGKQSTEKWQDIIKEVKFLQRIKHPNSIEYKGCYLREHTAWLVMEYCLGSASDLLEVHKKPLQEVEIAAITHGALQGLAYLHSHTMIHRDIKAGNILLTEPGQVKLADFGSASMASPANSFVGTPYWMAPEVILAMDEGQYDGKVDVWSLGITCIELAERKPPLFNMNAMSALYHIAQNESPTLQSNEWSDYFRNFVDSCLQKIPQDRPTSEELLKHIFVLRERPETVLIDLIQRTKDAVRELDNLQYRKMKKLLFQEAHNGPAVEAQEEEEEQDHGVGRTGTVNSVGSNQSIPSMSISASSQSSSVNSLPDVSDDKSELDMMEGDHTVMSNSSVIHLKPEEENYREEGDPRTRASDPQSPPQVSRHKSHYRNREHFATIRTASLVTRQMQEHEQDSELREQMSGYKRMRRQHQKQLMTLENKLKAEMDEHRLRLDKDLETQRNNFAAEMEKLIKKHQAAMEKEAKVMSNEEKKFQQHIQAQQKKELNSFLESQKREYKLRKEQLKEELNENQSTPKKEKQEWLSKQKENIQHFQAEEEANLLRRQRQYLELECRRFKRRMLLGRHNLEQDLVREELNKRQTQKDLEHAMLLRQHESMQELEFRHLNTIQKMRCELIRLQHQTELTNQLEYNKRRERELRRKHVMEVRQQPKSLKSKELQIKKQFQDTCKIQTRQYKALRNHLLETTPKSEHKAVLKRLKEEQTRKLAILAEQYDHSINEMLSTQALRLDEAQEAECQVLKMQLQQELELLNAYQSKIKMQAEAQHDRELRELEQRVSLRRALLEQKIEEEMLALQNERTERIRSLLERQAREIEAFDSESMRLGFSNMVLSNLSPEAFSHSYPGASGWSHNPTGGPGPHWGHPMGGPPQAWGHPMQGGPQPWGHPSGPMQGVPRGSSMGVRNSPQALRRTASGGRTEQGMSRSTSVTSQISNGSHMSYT

[20] = molecular target: Serine/threonine-protein kinase pim-1 (Homo sapiens, UniProt P11309); type: functional
Sequence of Serine/threonine-protein kinase pim-1 (P11309 whole entry): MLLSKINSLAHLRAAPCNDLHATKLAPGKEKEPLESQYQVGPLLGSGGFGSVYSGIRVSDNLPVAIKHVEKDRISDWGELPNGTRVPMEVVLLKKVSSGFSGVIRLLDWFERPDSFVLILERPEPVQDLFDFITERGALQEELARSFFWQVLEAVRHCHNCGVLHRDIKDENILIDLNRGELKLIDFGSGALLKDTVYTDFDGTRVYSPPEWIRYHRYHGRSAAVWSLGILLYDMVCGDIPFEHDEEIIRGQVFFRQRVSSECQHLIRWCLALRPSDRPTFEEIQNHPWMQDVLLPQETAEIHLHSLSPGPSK

[21] = molecular target: Tyrosine-protein kinase Fyn (Homo sapiens, UniProt P06241); type: functional
Activin receptor type-1 = Activin receptor type-1 (Homo sapiens, UniProt Q04771); assay: Navigating the Kinome. Panel member name: ACVR1; type: functional
Orexin receptor type 2 [22] = molecular target: T1, Orexin receptor type 2 (Homo sapiens, UniProt O43614); assay: Counterscreen assay for antagonists of the orexin 1 receptor (OX1R; HCRTR1): Fluorescence-based cell-based dose response assay for antagonists of the orexin 2 receptor (OX2R; HCRTR2), run by assay provider.; type: functional
T1 sequence (O43614 whole entry): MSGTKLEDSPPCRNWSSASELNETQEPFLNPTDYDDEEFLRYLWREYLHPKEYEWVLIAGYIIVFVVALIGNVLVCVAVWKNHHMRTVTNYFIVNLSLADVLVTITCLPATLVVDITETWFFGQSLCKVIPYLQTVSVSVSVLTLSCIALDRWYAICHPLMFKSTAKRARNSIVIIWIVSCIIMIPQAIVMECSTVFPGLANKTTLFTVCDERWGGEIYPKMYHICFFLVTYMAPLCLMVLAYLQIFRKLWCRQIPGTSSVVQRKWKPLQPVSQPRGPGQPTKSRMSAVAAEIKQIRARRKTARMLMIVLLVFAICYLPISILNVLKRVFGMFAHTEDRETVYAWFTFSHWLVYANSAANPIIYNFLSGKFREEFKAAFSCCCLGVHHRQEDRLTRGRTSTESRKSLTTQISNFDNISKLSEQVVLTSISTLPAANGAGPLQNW

[23] = molecular target: T2, Orexin/Hypocretin receptor type 1 (Homo sapiens, UniProt O43613); assay: (§1) Fluorescence-based cell-based high throughput dose response assay for antagonists of the orexin 1 receptor (OX1R; HCRTR1). [Related pubchem assays (depositor defined):AID434989, AID435008, AID463079, AID485270, AID492963, AID492964, AID492965, AID493232, AID504717, AID504718]; type: functional
T2 sequence (O43613 whole entry): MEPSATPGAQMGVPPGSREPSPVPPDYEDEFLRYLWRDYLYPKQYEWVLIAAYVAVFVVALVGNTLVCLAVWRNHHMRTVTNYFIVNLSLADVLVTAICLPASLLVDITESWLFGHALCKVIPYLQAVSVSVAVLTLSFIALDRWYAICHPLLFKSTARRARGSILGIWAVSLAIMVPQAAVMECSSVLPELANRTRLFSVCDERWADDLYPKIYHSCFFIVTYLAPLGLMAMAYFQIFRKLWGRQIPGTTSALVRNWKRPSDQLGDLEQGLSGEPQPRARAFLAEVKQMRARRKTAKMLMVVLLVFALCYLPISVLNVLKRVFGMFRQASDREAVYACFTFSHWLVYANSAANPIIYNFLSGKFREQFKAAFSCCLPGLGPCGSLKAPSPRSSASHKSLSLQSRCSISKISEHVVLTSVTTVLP

[24] = blockers of bursicon-stimulated LGR2 cAMP reporter – cell-based, HEK293, CRE-luciferase reporter, cherry pick, set 2, dose response (AID 743343); type: functional;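 further: transfected cells were stimulated with diluted bursicon conditioned medium after compound addition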
Orexin receptor type 2 [25] = molecular target: T1, Orexin receptor type 2; assay: Counterscreen assay for antagonists of the orexin 1 receptor (OX1R; HCRTR1): Homogeneous Time Resolved Fluorescence (HTRF)-based cell-based dose response assay for antagonists of the orexin 2 receptor (OX2R; HCRTR2), run by assay provider.; type: functional
[26] = molecular target: T3, Microphthalmia-associated transcription factor (Homo sapiens, UniProt O75030); assay: reducers of TRPM1 reporter luminescence, concentration series – cell-based, SK-MEL-5, cherry-picked, set 3, MITF inhibitor project, dose response (AID 493073); type: functional;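 further: SK-MEL-5 melanoma cells with luciferase driven by the MITF target TRPM1 promoter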
T3 sequence (O75030 whole entry): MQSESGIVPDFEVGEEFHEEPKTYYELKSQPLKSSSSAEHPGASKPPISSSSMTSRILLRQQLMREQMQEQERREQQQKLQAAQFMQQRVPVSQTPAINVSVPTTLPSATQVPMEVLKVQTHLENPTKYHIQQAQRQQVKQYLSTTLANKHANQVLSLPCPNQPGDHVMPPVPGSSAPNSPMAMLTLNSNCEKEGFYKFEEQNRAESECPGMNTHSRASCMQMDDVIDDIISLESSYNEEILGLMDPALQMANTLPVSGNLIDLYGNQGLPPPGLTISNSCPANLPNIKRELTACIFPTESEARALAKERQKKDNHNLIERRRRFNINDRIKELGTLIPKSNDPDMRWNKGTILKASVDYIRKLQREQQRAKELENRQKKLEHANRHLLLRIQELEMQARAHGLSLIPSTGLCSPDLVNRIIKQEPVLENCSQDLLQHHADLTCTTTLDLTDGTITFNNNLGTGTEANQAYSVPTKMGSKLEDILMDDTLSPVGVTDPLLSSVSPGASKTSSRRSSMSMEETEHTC

[27] = toxicity toward HepG2 liver cells – cell-based, plate reader, cherry-pick, antagonist series, cytotoxicity control, dose response (AID 743416); type: functional
[28] = viability loss in HEK293 cells – cell-based, plate reader, cherry-picked samples, cytotoxicity control, dose response (AID 743446); type: functional
[29] = (§2) Counterscreen for antagonists of the orexin 1 receptor (OX1R; HCRTR1): Fluorescence-based cell-based high throughput dose response assay to identify antagonists of the parental CHO cell line. [Related pubchem assays (depositor defined):AID434989, AID435008, AID463079, AID485270, AID492963, AID492964, AID492965, AID493232, AID504699, AID504701]; type: functional
[30] = molecular target: Neurotensin receptor type 1 (Homo sapiens, UniProt P30989); type: functional;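 further: Image-based confirmatory dose-response assay measuring agonist activity at NTR1; NTR1-expressing U2OS osteosarcoma cells imaged for beta-arrestin GFP spot formation; agonist potency where compounds increase beta-arrestin recruitment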
[31] = A549 cell cytotoxicity, dose response, cytotoxicity control, plate reader, cherry-pick, antagonist series (AID 743412); type: functional, cell-based
[32] = blockade of melanocortin 4 receptor signaling – cell-based, plate reader, cherry pick, counter-screen for LGR2 antagonist project, dose response (AID 743444); type: functional;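 further: transfected HEK 293 cells stimulated with alpha-MSH peptide; potency of inhibitors of the alpha-MSH evoked signal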
CHO-K1 = assay: as §2, with “Homogeneous time resolved fluorescence (HTRF)-based” for “Fluorescence-based”, “cell-based” for “cell-based high throughput”, “CHO-K1” for “CHO”; type: functional; settings: Cricetulus griseus;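 further: potency for inhibition of ATP-stimulated IP1 production as antagonists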
[33] = molecular target: T2, Orexin/Hypocretin receptor type 1; assay: as §1, with “Homogeneous Time Resolved Fluorescence (HTRF)-based” for “Fluorescence-based”; type: functional
[34] = molecular target: Sphingosine 1-phosphate receptor 5 (Homo sapiens, UniProt Q9H228); assay: activation of human S1P5 receptor – cell-based, fluorescence, set 2, counter-screen for S1P4 agonist project, late-stage follow-up (AID 504867); type: functional
[35] = molecular target: Sphingosine 1-phosphate receptor 3 (Homo sapiens, UniProt Q99500); assay: Late-stage fluorescence-based dose-response cell-based counterscreen assay to identify agonists of the Sphingosine 1-Phosphate Receptor 4 (S1P4): Sphingosine 1-Phosphate Receptor 3 (S1P3) agonist assay Set 2.; type: functional
[36] = molecular target: Sphingosine 1-phosphate receptor 1 (Homo sapiens, UniProt P21453); assay: Late-stage fluorescence-based dose-response cell-based counterscreen assay to identify agonists of the Sphingosine 1-Phosphate Receptor 4 (S1P4): Sphingosine 1-Phosphate Receptor 1 (S1P1) agonist assay Set 2.; type: functional
[37] = molecular target: Sphingosine 1-phosphate receptor 2 (Homo sapiens, UniProt O95136); assay: activation of human S1P2 receptor – cell-based, fluorescence, set 2, counter-screen for S1P4 agonist project, late-stage follow-up (AID 504873); type: functional
Sequence of Sphingosine 1-phosphate receptor 2 (O95136 whole entry): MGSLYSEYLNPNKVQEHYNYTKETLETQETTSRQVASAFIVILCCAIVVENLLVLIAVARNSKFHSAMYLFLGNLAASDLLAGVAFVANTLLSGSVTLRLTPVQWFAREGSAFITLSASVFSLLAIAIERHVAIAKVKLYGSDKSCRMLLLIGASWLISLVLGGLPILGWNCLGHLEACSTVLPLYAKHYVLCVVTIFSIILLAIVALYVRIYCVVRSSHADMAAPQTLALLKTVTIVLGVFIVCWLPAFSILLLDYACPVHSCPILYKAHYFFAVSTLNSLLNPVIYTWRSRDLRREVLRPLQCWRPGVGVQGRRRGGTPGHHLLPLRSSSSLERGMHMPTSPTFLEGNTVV

Sequence of Protein disulfide-isomerase (P07237 whole entry): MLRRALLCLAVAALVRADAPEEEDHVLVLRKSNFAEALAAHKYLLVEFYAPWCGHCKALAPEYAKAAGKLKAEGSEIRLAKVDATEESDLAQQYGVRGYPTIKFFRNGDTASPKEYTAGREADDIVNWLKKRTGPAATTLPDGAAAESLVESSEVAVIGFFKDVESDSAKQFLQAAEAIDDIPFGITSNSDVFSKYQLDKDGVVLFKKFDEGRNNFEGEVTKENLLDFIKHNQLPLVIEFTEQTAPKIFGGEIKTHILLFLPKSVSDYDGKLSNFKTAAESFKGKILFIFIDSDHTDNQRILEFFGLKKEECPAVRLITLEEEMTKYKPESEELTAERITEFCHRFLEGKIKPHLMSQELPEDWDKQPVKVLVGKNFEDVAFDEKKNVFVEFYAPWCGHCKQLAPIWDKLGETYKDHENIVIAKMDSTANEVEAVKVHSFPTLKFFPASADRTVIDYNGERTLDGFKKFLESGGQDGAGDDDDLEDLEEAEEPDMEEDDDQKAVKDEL

AC50 [1]: 19.5 µM (active)
SMILES: O=C(CCC1CCCCC1)NCCN1C2=NC[C@H](Cc3ccc(O)cc3)N2C[C@H]1Cc1ccc(O)cc1

Ki [2]: > 3.98 µM (inactive) | Ki [3]: > 7.94 µM (inactive) | Ki [4]: > 5.01 µM (inactive) | Ki [5]: > 5.01 µM (inactive) | Ki [6]: > 5.01 µM (inactive) | Ki [7]: > 3.98 µM (inactive) | Ki [8]: > 3.98 µM (inactive) | Ki [9]: > 6.31 µM (inactive) | Ki [11]: > 3.98 µM (inactive) | Ki [12]: > 3.98 µM (inactive) | Ki [13]: > 3.98 µM (inactive) | Ki [14]: > 6.31 µM (inactive) | Ki [15]: > 5.01 µM (inactive) | Ki [16]: > 3.98 µM (inactive) | Ki [17]: > 5.01 µM (inactive) | Ki [18]: > 6.31 µM (inactive) | Ki (Focal adhesion kinase 1): > 6.31 µM (inactive) | Ki [19]: > 6.31 µM (inactive) | Ki [20]: > 6.31 µM (inactive) | Ki [21]: > 6.31 µM (inactive) | Ki (Activin receptor type-1): > 3.98 µM (inactive)
SMILES: Cc1cc(=O)[nH]c2[nH]nc(-c3cccc(C(F)(F)F)c3)c12
Ki [10]: > 5.01 µM (inactive)

SMILES: CN(C)S(=O)(=O)c1ccc(-c2csc(N/N=C/c3ccco3)n2)cc1
IC50 (Orexin receptor type 2 [22]): > 88.8 µM (inactive) | IC50 [23]: > 49.8 µM (inactive) | AC50 [24]: 7.23 µM (active) | IC50 (Orexin receptor type 2 [25]): > 50 µM (inactive) | AC50 [26]: 3.9 µM (active) | AC50 [27]: 5.32 µM (active) | AC50 [28]: 11 µM (active) | IC50 [29]: > 49.8 µM (inactive) | EC50 [30]: 8.51 µM (active) | AC50 [31]: 40.7 µM (active) | AC50 [32]: 7.48 µM (active) | IC50 (CHO-K1): > 66.2 µM (inactive) | IC50 [33]: 7.29 µM (active)

EC50 [34]: 0.0336 µM (active) | EC50 [35]: > 25 µM (inactive) | EC50 [36]: 3.01 µM (active) | EC50 [37]: > 25 µM (inactive)
SMILES: C/N=C1/S/C(=C/c2cc(C)n(-c3ccc(Cl)cc3F)c2C)C(=O)N1C

Source: ChEMBL document CHEMBL1201862, “PubChem BioAssay data set” (2004)
